Experimental data as given in patent US9695155B2, “Herbicidal substituted pyrimidinyloxy benzene compounds” (E. I. DU PONT DE NEMOURS AND COMPANY, priority 2013, dated 2017).

Assays:
kochia [1] = assay: Test A preemergence; assay type: in vivo, Kochia scoparia; settings: for Plant response rating, Kochia: 0 to 100 scale where 0 is no effect and 100 is complete control
In short: (§1)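 Scoring: eye-based comparison with untreated controls, 0 for no effect through 100 for complete control, at about day 10. Treatments: directed soil spray preemergence; foliar spray postemergence on 2–10 cm plants at the one- to two-leaf stage. Medium: loam soil with sand.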

giant foxtail [2] = assay: Test A preemergence; assay type: in vivo, Setaria faberii; settings: for Plant response rating, Foxtail, Giant: 0 to 100 scale where 0 is no effect and 100 is complete control
In short: as §1

wheat = assay: Test A postemergence; assay type: in vivo, Triticum aestivum
In short: as §1

rice = assay: Test B flooded paddy test; assay type: in vivo, Oryza sativa; settings: Flood, 250 g ai/ha; 0 to 100 scale where 0 is no effect and 100 is complete control
In short: (§2)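 Visual ratings on a 0 to 100 scale, where 100 means complete control, compared treated plants with controls after 13 to 15 days in a greenhouse. Treatment went into paddy water 3 cm deep over the soil, applied to plants at the 2-leaf stage.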

barnyardgrass [3] = assay: Test A preemergence; assay type: in vivo, Echinochloa crus-galli; settings: for Plant response rating, Barnyardgrass: 0 to 100 scale where 0 is no effect and 100 is complete control
In short: as §1

blackgrass = assay: Test A postemergence; assay type: in vivo, Alopecurus myosuroides
In short: as §1

Heteranthera limosa = assay: Test B flooded paddy test; assay type: in vivo; settings: Flood, 250 g ai/ha; 0 to 100 scale where 0 is no effect and 100 is complete control
In short: as §2

pigweed [4] = assay: Test A preemergence; assay type: in vivo, Amaranthus retroflexus; settings: for Plant response rating, Pigweed: 0 to 100 scale where 0 is no effect and 100 is complete control
In short: as §1

kochia [5] = assay: Test A postemergence; assay type: in vivo, Kochia scoparia
In short: as §1

ragweed [6] = assay: Test A preemergence; assay type: in vivo, Ambrosia elatior; settings: for Plant response rating, Ragweed: 0 to 100 scale where 0 is no effect and 100 is complete control
In short: as §1

ragweed [7] = assay: Test A postemergence; assay type: in vivo, Ambrosia elatior
In short: as §1

barnyardgrass [8] = assay: Test A postemergence; assay type: in vivo, Echinochloa crus-galli
In short: as §1

barnyardgrass [9] = assay: Test B flooded paddy test; assay type: in vivo, Echinochloa crus-galli; settings: Flood, 250 g ai/ha; 0 to 100 scale where 0 is no effect and 100 is complete control
In short: as §2

sedge, umbrella = assay: Test B flooded paddy test; assay type: in vivo, Cyperus difformis; settings: Flood, 250 g ai/ha; 0 to 100 scale where 0 is no effect and 100 is complete control
In short: as §2

corn = assay: Test A postemergence; assay type: in vivo, Zea mays
In short: as §1

pigweed [10] = assay: Test A postemergence; assay type: in vivo, Amaranthus retroflexus
In short: as §1

galium = assay: Test A postemergence; assay type: in vivo, Galium aparine
In short: as §1

Italian ryegrass [11] = assay: Test A postemergence; assay type: in vivo, Lolium multiflorum
In short: as §1

Italian ryegrass [12] = assay: Test A preemergence; assay type: in vivo, Lolium multiflorum; settings: for Plant response rating, Ryegrass, Italian: 0 to 100 scale where 0 is no effect and 100 is complete control
In short: as §1

giant foxtail [13] = assay: Test A postemergence; assay type: in vivo, Setaria faberii
In short: as §1

[14] = 31 g ai/ha, visual, approximately 10 days
[15] = 31 g ai/ha, 0 to 100 scale, 0 no effect, 100 complete control
[16] = 125 g ai/ha, 0 to 100 scale where 0 is no effect and 100 is complete control
[17] = 500 g ai/ha, 0 to 100 scale, 0 no effect, 100 complete control, approx. 10 days
[18] = 500 g ai/ha, 0 to 100 scale where 0 is no effect and 100 is complete control

COc1cccc(Oc2ncc(Cl)cn2)c1-n1cc(Cl)cn1 [Compound 169]
Plant response rating, Kochia (kochia [1]; [14]): 0
Kochia plant response rating (0 to 100 scale) (kochia [1]; 125 g ai/ha): 0
Plant response rating, Foxtail, Giant (giant foxtail [2]; [14]): 30
Plant response rating, Foxtail, Giant (giant foxtail [2]; 125 g ai/ha): 80
Plant response rating, Wheat (wheat; [15]): 0
Wheat plant response rating (wheat; [16]): 0
Plant response rating, Rice (rice): 15
Plant response rating, Barnyardgrass (barnyardgrass [3]; [14]): 10
Plant response rating, Barnyardgrass (barnyardgrass [3]; 125 g ai/ha): 50
Plant response rating, Blackgrass (blackgrass; [15]): 0
Blackgrass plant response rating (blackgrass; [16]): 30
Plant response rating, Ducksalad (Heteranthera limosa): 65
Plant response rating, Pigweed (pigweed [4]; [14]): 0
Pigweed plant response rating (0 to 100 scale) (pigweed [4]; 125 g ai/ha): 80
Plant response rating, Kochia (kochia [5]; [15]): 0
Kochia plant response rating (kochia [5]; [16]): 10
Plant response rating, Ragweed (ragweed [6]; [14]): 0
Ragweed plant response rating (0 to 100 scale) (ragweed [6]; 125 g ai/ha): 0
Plant response rating, Ragweed (ragweed [7]; [15]): 10
Ragweed plant response rating (ragweed [7]; [16]): 60
Plant response rating, Barnyardgrass (barnyardgrass [8]; [15]): 0
Barnyardgrass plant response rating (barnyardgrass [8]; [16]): 20
Plant response rating, Barnyardgrass (barnyardgrass [9]): 25
Plant response rating, Sedge, Umbrella (sedge, umbrella): 75
Plant response rating, Corn (corn; [15]): 0
Corn plant response rating (corn; [16]): 0
Plant response rating, Pigweed (pigweed [10]; [15]): 10
Pigweed plant response rating (pigweed [10]; [16]): 20
Plant response rating, Galium (galium; [15]): 10
Galium plant response rating (galium; [16]): 40
Plant response rating, Ryegrass, Italian (Italian ryegrass [11]; [15]): 0
Ryegrass, Italian plant response rating (Italian ryegrass [11]; [16]): 0
Plant response rating, Ryegrass, Italian (Italian ryegrass [12]; [14]): 0
Ryegrass, Italian plant response rating (0 to 100 scale) (Italian ryegrass [12]; 125 g ai/ha): 0
Plant response rating, Foxtail, Giant (giant foxtail [13]; [15]): 0
Foxtail, Giant plant response rating (giant foxtail [13]; [16]): 40

N#Cc1cccc(Oc2ncc(I)cn2)c1-n1cc(I)cn1 [Compound 87]
Plant response rating, Kochia (kochia [1]; 125 g ai/ha): 30
Kochia plant response rating (kochia [1]; [17]): 60
Plant response rating, Foxtail, Giant (giant foxtail [2]; 125 g ai/ha): 60
Foxtail, Giant plant response rating (giant foxtail [2]; [17]): 70
Plant response rating, Wheat (wheat; [16]): 0
Plant response rating, Wheat (wheat; [18]): 0
Plant response rating, Rice (rice): 0
Plant response rating, Barnyardgrass (barnyardgrass [3]; 125 g ai/ha): 0
Barnyardgrass plant response rating (barnyardgrass [3]; [17]): 10
Plant response rating, Blackgrass (blackgrass; [16]): 40
Plant response rating, Blackgrass (blackgrass; [18]): 50
Plant response rating, Ducksalad (Heteranthera limosa): 0
Plant response rating, Pigweed (pigweed [4]; 125 g ai/ha): 90
Pigweed plant response rating (pigweed [4]; [17]): 100
Plant response rating, Kochia (kochia [5]; [16]): 50
Plant response rating, Kochia (kochia [5]; [18]): 90
Plant response rating, Ragweed (ragweed [6]; 125 g ai/ha): 10
Ragweed plant response rating (ragweed [6]; [17]): 20
Plant response rating, Ragweed (ragweed [7]; [16]): 50
Plant response rating, Ragweed (ragweed [7]; [18]): 70
Plant response rating, Barnyardgrass (barnyardgrass [8]; [16]): 20
Plant response rating, Barnyardgrass (barnyardgrass [8]; [18]): 20
Plant response rating, Barnyardgrass (barnyardgrass [9]): 0
Plant response rating, Sedge, Umbrella (sedge, umbrella): 0
Plant response rating, Corn (corn; [16]): 20
Plant response rating, Corn (corn; [18]): 20
Plant response rating, Pigweed (pigweed [10]; [16]): 60
Plant response rating, Pigweed (pigweed [10]; [18]): 100
Plant response rating, Galium (galium; [16]): 60
Plant response rating, Galium (galium; [18]): 90
Plant response rating, Ryegrass, Italian (Italian ryegrass [11]; [16]): 30
Plant response rating, Ryegrass, Italian (Italian ryegrass [11]; [18]): 40
Plant response rating, Ryegrass, Italian (Italian ryegrass [12]; 125 g ai/ha): 0
Ryegrass, Italian plant response rating (Italian ryegrass [12]; [17]): 0
Plant response rating, Foxtail, Giant (giant foxtail [13]; [16]): 20
Plant response rating, Foxtail, Giant (giant foxtail [13]; [18]): 60
